Laboratory results from PMC2074394 (British Journal of Cancer, 1996).
“Also recorded” adds a separate entry of the source. Where two headings read alike, the source gives them in different places.

What was measured:
[1] = system: MCF-7/Adr cells; test: Flow cytometric analysis of R123 accumulation and efflux; format: cell-based, human; conditions: for Increase over control levels in R123 accumulation: 20 min together with R123; for Effect on R123 accumulation or efflux: 640 nM; for Effect on R123 efflux (Table III summary): key: +: potent effect; (+): weak effect; -: no effect
Excerpt: (§1) In the present study these five compounds are compared as modifiers of P-gp-mediated MDR. […] The overall objective of the work was to explore the mechanisms of cytostasis and resistance reversal caused by kinase inhibitors in a MDR cell line, with the ultimate aim to assess the potential use of such compounds in cancer therapy. […] [3H]Vinblastine (11 or 21 Ci mmol -') was obtained from Amersham (Amersham, UK). […] Cell culture medium and serum were purchased from Gibco BRL (Paisley, UK). Stock solutions of drugs were prepared in dimethyl sulphoxide (DMSO) and stored at -20?C. […] Cultures of both cell types contained L-glutamine (2 mM), penicillin (100 IU ml-') and streptomy- cin (100 ug ml-1). Cells were subcultured when they were confluent. […] After a 4 h attachment period compounds at various concentrations were added. […] Cells were trypsinised and counted using a model ZM Coulter counter. Incubations were conducted in duplicate. Growth inhibition was expressed as percentage of cell number in drug-free control incubates. […] IC50 values were derived from three separate experiments each performed in duplicate. The resistance ratios shown in Table I are the ratios of IC50 in MCF-7/Adr over IC50 in MCF-7, or IC50 in MCF-7/Adr in the absence of reserpine over IC50 in its presence. Flow cytometric analysis of R123 accumulation and efflux Cells were maintained in medium without phenol red but with FCS (10%) and gentamicin (50 µg ml-'). […] Cells were detached by treatment with trypsin-EDTA, washed with ice-cold PBS and resuspended in PBS (1 ml), to which propidium iodide (10 Mg) was added. […] Single- and multi-parameter data of forward angle scatter, side scatter, R123 fluorescence and propidium iodide fluorescence were collected for 104 cells. Fluorescence was measured on a four-decade log scale. The data were analysed using Lysis 2 software. Only R123 fluorescence of viable, propidium iodide-excluding cells was analysed. [/II] Vinblastine accumndation ini cells MCF-7 and MCF-7jAdr cells were grown to confluency in 12-well plates. […] The experiment was started by addition of [3H]vinblastine (1 -2 nM) to the incubate. […] Cells were incubated at 37'C for I h, after which the medium was aspirated and replaced with scintillant (1 ml). […] For each membrane preparation 109 cells were homogenised in 40 ml ice-cold Tris buffer [Tris-HC1 50 mM, phenylmethylsulphonyl fluoride (PMSF) 0.1 mM, pH 7.4] to which 0.1 mM EDTA had been added. The homogenate was centrifuged at 3500 g for 10 min; the supernatant was recentrifuged at 40 000 g for 20 min, the resultant pellet was resuspended in Tris buffer (10 ml). […] Filters were washed twice with 5 ml of ice-cold Tris-HCI containing magnesium chloride (both 20 mM). Assays were performed in duplicate. Filters were dried and retained radioactivity was quantitated by liquid scintillation counting.

[2] = system: MCF-7/Adr cells; test: [3H]Vinblastine accumulation in MCF-7/Adr cells; format: cell-based, human; conditions: 300 nM, 1 h, 37 C; control cells 1280 d.p.m.
Excerpt: as §1, with “were” for “were washed twice with 5 ml of ice-cold Tris-HCI containing magnesium chloride (both 20 mM). Assays were performed in duplicate. Filters were”

[3] = biological target: P-gp (Homo sapiens, UniProt P08183); test: Inhibition of binding of [3H]vinblastine to P-gp in MCF-7/Adr membranes
Excerpt: as §1

[4] = system: MCF-7/Adr cells; test: Sensitisation of MCF-7/Adr cells against doxorubicin (preliminary study); format: cell-based, human; conditions: unpublished preliminary study
[5] = system: MCF-7 cells; test: Inhibition of growth of MCF-7 wild-type cells (4 days, Coulter count); format: cell-based, human; conditions: for IC50: 4 days incubation, mean of three experiments, read-out: IC50 MCF-7 (concentration which caused inhibition of cell growth by 50%)
Excerpt: as §1, with “were” for “were washed twice with 5 ml of ice-cold Tris-HCI containing magnesium chloride (both 20 mM). Assays were performed in duplicate. Filters were”

[6] = system: MCF-7/Adr cells; test: Inhibition of growth of multidrug-resistant MCF-7/Adr cells, without or with reserpine; format: cell-based, human; conditions: for IC50: 4 days incubation, without reserpine; for Ratio (-reserpine / +reserpine): IC50 in MCF-7/Adr in the absence of reserpine over IC50 in its presence; for Ratio (MCF-7/Adr / MCF-7), resistance ratio: IC50 in MCF-7/Adr over IC50 in MCF-7; for MDR reversal by reserpine (Table III summary): key: +: potent effect; (+): weak effect; -: no effect
[7] = system: PKC; conditions: cited from earlier work; for PKC inhibition, potency (Table III summary) / IC50: ref Courage et al., 1995; for IC50: read-out: IC50 for enzyme inhibition, PKC derived from the cytosol of MCF-7 cells; for PKC inhibition, potency (Table III summary): key: +: potent effect; (+): weak effect; -: no effect; for PKC inhibition, specificity (Table III summary): key: +: potent effect; (+): weak effect; -: no effect
[8] = read-out: Ki, inhibition of binding of [3H]vinblastine to P-gp, MCF-7/Adr membranes, 90 min, 23 C, mean, s.e.m.
[9] = Homo sapiens, NCI/ADR-RES, 96 h

Chain of P-gp (P08183 whole entry): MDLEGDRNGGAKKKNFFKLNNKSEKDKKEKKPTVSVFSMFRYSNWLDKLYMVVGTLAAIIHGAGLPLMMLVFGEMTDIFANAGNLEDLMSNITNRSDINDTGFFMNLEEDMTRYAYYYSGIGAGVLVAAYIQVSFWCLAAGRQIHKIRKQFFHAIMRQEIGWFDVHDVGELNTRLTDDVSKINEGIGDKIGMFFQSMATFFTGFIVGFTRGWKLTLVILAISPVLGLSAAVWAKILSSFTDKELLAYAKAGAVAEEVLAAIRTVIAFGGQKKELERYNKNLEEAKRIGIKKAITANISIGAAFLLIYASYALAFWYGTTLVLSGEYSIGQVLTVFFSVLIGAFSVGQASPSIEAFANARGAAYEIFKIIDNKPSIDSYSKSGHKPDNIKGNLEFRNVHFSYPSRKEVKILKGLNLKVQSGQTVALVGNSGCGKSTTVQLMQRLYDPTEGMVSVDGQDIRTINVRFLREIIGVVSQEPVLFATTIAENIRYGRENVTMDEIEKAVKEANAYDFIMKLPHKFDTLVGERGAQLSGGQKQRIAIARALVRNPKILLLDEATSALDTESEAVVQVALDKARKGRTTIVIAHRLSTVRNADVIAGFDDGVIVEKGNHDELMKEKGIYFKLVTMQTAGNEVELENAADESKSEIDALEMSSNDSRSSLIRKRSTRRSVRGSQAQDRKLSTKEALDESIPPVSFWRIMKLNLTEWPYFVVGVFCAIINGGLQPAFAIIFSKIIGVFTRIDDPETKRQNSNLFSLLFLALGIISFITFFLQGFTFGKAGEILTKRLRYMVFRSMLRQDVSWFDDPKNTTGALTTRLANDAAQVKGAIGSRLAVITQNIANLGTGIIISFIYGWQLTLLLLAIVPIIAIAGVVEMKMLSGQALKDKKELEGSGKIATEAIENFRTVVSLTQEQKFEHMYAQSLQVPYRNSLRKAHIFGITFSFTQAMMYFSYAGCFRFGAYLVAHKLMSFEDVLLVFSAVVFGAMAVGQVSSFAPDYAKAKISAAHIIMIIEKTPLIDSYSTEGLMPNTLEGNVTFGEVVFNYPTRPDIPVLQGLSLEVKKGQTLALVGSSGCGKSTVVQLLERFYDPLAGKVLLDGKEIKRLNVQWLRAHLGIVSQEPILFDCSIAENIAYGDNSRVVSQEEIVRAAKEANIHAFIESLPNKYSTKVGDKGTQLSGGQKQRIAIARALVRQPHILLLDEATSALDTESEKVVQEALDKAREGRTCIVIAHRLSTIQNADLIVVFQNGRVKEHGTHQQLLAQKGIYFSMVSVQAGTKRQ

Structure (SMILES)	Effect on R123 efflux (Table III summary) [1]	[3H]Vinblastine accumulation [2]	Inhibition of [3H]vinblastine binding (Table III summary) [3]	IC50 [5]	IC50 [6]	Ratio (-reserpine / +reserpine) [6]	Ratio (MCF-7/Adr / MCF-7), resistance ratio [6]	Ki [3, 8]	PKC inhibition, specificity (Table III summary) [7]	PKC inhibition, potency (Table III summary) [7]	further results
CO[C@@H]1[C@H](N(C)C(=O)c2ccccc2)C[C@H]2O[C@]1(C)n1c3ccccc3c3c4c(c5c6ccccc6n2c5c31)C(=O)NC4 [CGP 41251, 4'-N-benzoyl staurosporine]	+	3200 d.p.m.	+								Increase over control levels in R123 retention (efflux) ([1]; 80 nM, 20 min after loading with and removal of the dye): 150%; Increase over control levels in R123 accumulation ([1]; 80 nM): 47%; Ki [3]: 32 nM; Increase of sensitivity of cells towards doxorubicin (factor) ([4]; 80 nM): 2
CN(C)CCCn1cc(C2=C(c3c[nH]c4ccccc34)C(=O)NC2=O)c2ccccc21 [GF 109203X]		1790 d.p.m.		7300 nM	8800 nM	1.5	1.2	780 nM	+	+	Effect on R123 accumulation or efflux [1]: inactive; also recorded: did not alter
Cn1cc(C2=C(c3cn(CCCSC(=N)N)c4ccccc34)C(=O)NC2=O)c2ccccc21 [RO 31 8220]		no effect	(+)	897 nM	11300 nM	6.4	12.6	210 nM	+	+	Effect of reserpine on sensitivity of wild-type MCF-7 cells ([5]; result not shown): did not affect; MDR reversal by reserpine (Table III summary) [6]: +; Resistance in MCF-7/Adr cells (Table III summary) [6]: +; Effect on R123 accumulation or efflux [1]: inactive; also recorded: did not alter; Effect on sensitivity of cells towards doxorubicin ([4]; 2 μM): no effect; IC50 [7]: 48 nM
CN[C@@H]1C[C@H]2O[C@@](C)([C@@H]1OC)n1c3ccccc3c3c4c(c5c6ccccc6n2c5c31)C(=O)N[C@H]4O [UCN-01, 7-hydroxystaurosporine]	(+)	2110 d.p.m.	(+)	17.5 nM	123 nM	3.5	7.0	293 nM	+	+	MDR reversal by reserpine (Table III summary) [6]: +; Resistance in MCF-7/Adr cells (Table III summary) [6]: +; Concentration with significant effect on R123 accumulation ([1]; tested 10-640 nM): 80 nM; Concentration with significant effect on dye efflux ([1]; tested 10-640 nM): 320 nM
COc1cccc2c1C(=O)c1c(O)c3c(c(O)c1C2=O)C[C@@](O)(C(=O)CO)C[C@@H]3O[C@H]1C[C@H](N)[C@H](O)[C@H](C)O1 [doxorubicin]						16					IC50 [6, 9]: 1600 nM
COC(=O)[C@H]1[C@H]2C[C@@H]3c4[nH]c5cc(OC)ccc5c4CCN3C[C@H]2C[C@@H](OC(=O)c2cc(OC)c(OC)c(OC)c2)[C@@H]1OC [reserpine]											Effect on proliferation ([6]; reserpine 5 μM): did not interfere with proliferation; Increase of sensitivity towards doxorubicin ([6]; reserpine 5 μM, preliminary experiments): 14.3 fold
CN[C@@H]1C[C@H]2O[C@@](C)([C@@H]1OC)n1c3ccccc3c3c4c(c5c6ccccc6n2c5c31)C(=O)NC4 [staurosporine]	+		(+)								IC50 [6, 9]: 6.5 nM; Increase over control levels in R123 accumulation ([1]; 80 nM): 40%; Increase over control levels in R123 retention (efflux) ([1]; 20 min, 0.08 µM): 75%; Ki [3]: 145 nM; IC50 [7]: 16 nM
